Tested on: 885724-159-R-J1-PDC KRAS PDC multicell spheroid viability
Test: Anticancer human tumor 885724-159-R-J1-PDC patient-derived pancreatic adenocarcinoma cell line growth inhibition [KRAS2]
Conditions: for IC50: curve of first compound; for viability, T/C: stronger effect = lower value
Procedure, shortened: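 KRAS-mutant tumor cells were grown as spheroids with HUVEC endothelial cells and human MSCs as stroma. Targeted agents were tested alone and with KRAS pathway inhibitors. Doses started at or near clinical Cmax, or 10 microM, descending half-log.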

[1] = second compound 0.1 µM, first compound 0.0316 µM
[2] = second compound 0.316 µM, first compound 0.0316 µM
[3] = second compound 1 µM, first compound 0.0316 µM
[4] = second compound 3.16 µM, first compound 0.0316 µM
[5] = second compound 10 µM, first compound 0.0316 µM
[6] = second compound 0.1 µM, first compound 0.1 µM
[7] = second compound 0.1 µM, first compound 0.316 µM
[8] = second compound 0.1 µM, first compound 1 µM
[9] = second compound 0.1 µM, first compound 3.16 µM
[10] = second compound 0.1 µM, first compound 10 µM
[11] = second compound 0.316 µM, first compound 0.1 µM
[12] = second compound 0.316 µM, first compound 0.316 µM
[13] = second compound 0.316 µM, first compound 1 µM
[14] = second compound 0.316 µM, first compound 3.16 µM
[15] = second compound 0.316 µM, first compound 10 µM
[16] = second compound 1 µM, first compound 0.1 µM
[17] = second compound 1 µM, first compound 0.316 µM
[18] = second compound 1 µM, first compound 1 µM
[19] = second compound 1 µM, first compound 3.16 µM
[20] = second compound 1 µM, first compound 10 µM
[21] = second compound 3.16 µM, first compound 0.1 µM
[22] = second compound 3.16 µM, first compound 0.316 µM
[23] = second compound 3.16 µM, first compound 1 µM
[24] = second compound 3.16 µM, first compound 3.16 µM
[25] = second compound 3.16 µM, first compound 10 µM
[26] = second compound 10 µM, first compound 0.1 µM
[27] = second compound 10 µM, first compound 0.316 µM
[28] = second compound 10 µM, first compound 1 µM
[29] = second compound 10 µM, first compound 3.16 µM
[30] = second compound 10 µM, first compound 10 µM
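Further: spheroids exposed to agents for 7 days before readout.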

SMILES: CC(=O)Nc1cccc(-n2c(=O)n(C3CC3)c(=O)c3c(Nc4ccc(I)cc4F)n(C)c(=O)c(C)c32)c1 + CC1OCC2(CCN(c3cnc(Sc4ccnc(N)c4Cl)c(N)n3)CC2)C1N
- IC50 (second compound 0.1 µM): 0.715 nM
- IC50 (second compound 0.316 µM): 0.532 nM
- IC50 (second compound 1 µM): 0.328 nM
- IC50 (second compound 3.16 µM): 0.213 nM
- IC50 (second compound 10 µM): 0.106 nM
- viability, T/C (second compound 0.1 µM, first compound 0.0001 µM): 81.5%
- viability, T/C (second compound 0.1 µM, first compound 0.000316 µM): 62%
- viability, T/C (second compound 0.1 µM, first compound 0.001 µM): 44.4%
- viability, T/C (second compound 0.1 µM, first compound 0.00316 µM): 33.3%
- viability, T/C (second compound 0.1 µM, first compound 0.01 µM): 24.1%
- viability, T/C [1]: 17.9%
- viability, T/C (second compound 0.316 µM, first compound 0.0001 µM): 73.6%
- viability, T/C (second compound 0.316 µM, first compound 0.000316 µM): 57.4%
- viability, T/C (second compound 0.316 µM, first compound 0.001 µM): 41.3%
- viability, T/C (second compound 0.316 µM, first compound 0.00316 µM): 28.8%
- viability, T/C (second compound 0.316 µM, first compound 0.01 µM): 23.2%
- viability, T/C [2]: 15.9%
- viability, T/C (second compound 1 µM, first compound 0.0001 µM): 64.7%
- viability, T/C (second compound 1 µM, first compound 0.000316 µM): 51.6%
- viability, T/C (second compound 1 µM, first compound 0.001 µM): 34.8%
- viability, T/C (second compound 1 µM, first compound 0.00316 µM): 28%
- viability, T/C (second compound 1 µM, first compound 0.01 µM): 18.4%
- viability, T/C [3]: 15%
- viability, T/C (second compound 3.16 µM, first compound 0.0001 µM): 57%
- viability, T/C (second compound 3.16 µM, first compound 0.000316 µM): 47.6%
- viability, T/C (second compound 3.16 µM, first compound 0.001 µM): 30.3%
- viability, T/C (second compound 3.16 µM, first compound 0.00316 µM): 24.3%
- viability, T/C (second compound 3.16 µM, first compound 0.01 µM): 17.5%
- viability, T/C [4]: 14.3%
- viability, T/C (second compound 10 µM, first compound 0.0001 µM): 50.6%
- viability, T/C (second compound 10 µM, first compound 0.000316 µM): 38.6%
- viability, T/C (second compound 10 µM, first compound 0.001 µM): 26%
- viability, T/C (second compound 10 µM, first compound 0.00316 µM): 19.6%
- viability, T/C (second compound 10 µM, first compound 0.01 µM): 13.8%
- viability, T/C [5]: 11.7%

SMILES: COC(=O)c1ccc2c(C(=Nc3ccc(N(C)C(=O)CN4CCN(C)CC4)cc3)c3ccccc3)c(O)[nH]c2c1 + CC1OCC2(CCN(c3cnc(Sc4ccnc(N)c4Cl)c(N)n3)CC2)C1N
- IC50 (second compound 0.1 µM): 2020 nM
- IC50 (second compound 0.316 µM): 1820 nM
- IC50 (second compound 1 µM): 1520 nM
- IC50 (second compound 3.16 µM): 1400 nM
- IC50 (second compound 10 µM): 1090 nM
- viability, T/C [1]: 95%
- viability, T/C [6]: 95.8%
- viability, T/C [7]: 92.2%
- viability, T/C [8]: 94.2%
- viability, T/C [9]: 21.9%
- viability, T/C [10]: 0.87%
- viability, T/C [2]: 91.4%
- viability, T/C [11]: 84.9%
- viability, T/C [12]: 80.9%
- viability, T/C [13]: 86.4%
- viability, T/C [14]: 17.1%
- viability, T/C [15]: 0.39%
- viability, T/C [3]: 67.3%
- viability, T/C [16]: 69.3%
- viability, T/C [17]: 73.8%
- viability, T/C [18]: 70.2%
- viability, T/C [19]: 14.8%
- viability, T/C [20]: 1.25%
- viability, T/C [4]: 66.9%
- viability, T/C [21]: 74.1%
- viability, T/C [22]: 78.2%
- viability, T/C [23]: 66%
- viability, T/C [24]: 10.4%
- viability, T/C [25]: 0.29%
- viability, T/C [5]: 62%
- viability, T/C [26]: 68.8%
- viability, T/C [27]: 61.4%
- viability, T/C [28]: 53.9%
- viability, T/C [29]: 2.07%
- viability, T/C [30]: 0.63%

SMILES: COc1cc(Nc2ncc3c(n2)-c2ccc(Cl)cc2C(c2c(F)cccc2OC)=NC3)ccc1C(=O)O + CC1OCC2(CCN(c3cnc(Sc4ccnc(N)c4Cl)c(N)n3)CC2)C1N
- IC50 (second compound 0.1 µM): > 10000 nM
- IC50 (second compound 0.316 µM): > 10000 nM
- IC50 (second compound 1 µM): > 10000 nM
- IC50 (second compound 3.16 µM): > 10000 nM
- IC50 (second compound 10 µM): > 10000 nM
- viability, T/C [1]: 104%
- viability, T/C [6]: 91.3%
- viability, T/C [7]: 92.4%
- viability, T/C [8]: 96.7%
- viability, T/C [9]: 99%
- viability, T/C [10]: 103%
- viability, T/C [2]: 95.1%
- viability, T/C [11]: 90.7%
- viability, T/C [12]: 85.8%
- viability, T/C [13]: 84.1%
- viability, T/C [14]: 91.2%
- viability, T/C [15]: 93.5%
- viability, T/C [3]: 90%
- viability, T/C [16]: 88.8%
- viability, T/C [17]: 78%
- viability, T/C [18]: 79.6%
- viability, T/C [19]: 79.4%
- viability, T/C [20]: 87.7%
- viability, T/C [4]: 81.7%
- viability, T/C [21]: 82.2%
- viability, T/C [22]: 76.4%
- viability, T/C [23]: 73.8%
- viability, T/C [24]: 75.2%
- viability, T/C [25]: 80.3%
- viability, T/C [5]: 76.5%
- viability, T/C [26]: 69.3%
- viability, T/C [27]: 70.6%
- viability, T/C [28]: 67.7%
- viability, T/C [29]: 70.9%
- viability, T/C [30]: 70.9%

SMILES: COc1cc2nccc(Oc3ccc(NC(=O)C4(C(=O)Nc5ccc(F)cc5)CC4)cc3)c2cc1OC + CC1OCC2(CCN(c3cnc(Sc4ccnc(N)c4Cl)c(N)n3)CC2)C1N
- IC50 (second compound 0.1 µM): > 10000 nM
- IC50 (second compound 0.316 µM): > 10000 nM
- IC50 (second compound 1 µM): 3120 nM
- IC50 (second compound 3.16 µM): 2980 nM
- IC50 (second compound 10 µM): 2210 nM
- viability, T/C [1]: 87.1%
- viability, T/C [6]: 87.9%
- viability, T/C [7]: 87.9%
- viability, T/C [8]: 82.7%
- viability, T/C [9]: 59.1%
- viability, T/C [10]: 63%
- viability, T/C [2]: 84.7%
- viability, T/C [11]: 79.9%
- viability, T/C [12]: 83.7%
- viability, T/C [13]: 84.7%
- viability, T/C [14]: 60.5%
- viability, T/C [15]: 51.1%
- viability, T/C [3]: 74.3%
- viability, T/C [16]: 71.2%
- viability, T/C [17]: 76.2%
- viability, T/C [18]: 72.5%
- viability, T/C [19]: 49.1%
- viability, T/C [20]: 50.3%
- viability, T/C [4]: 75.5%
- viability, T/C [21]: 82.8%
- viability, T/C [22]: 72.1%
- viability, T/C [23]: 67.7%
- viability, T/C [24]: 45.8%
- viability, T/C [25]: 52.3%
- viability, T/C [5]: 71.4%
- viability, T/C [26]: 62.9%
- viability, T/C [27]: 67.4%
- viability, T/C [28]: 63.3%
- viability, T/C [29]: 44%
- viability, T/C [30]: 39.4%
